Assay results from US12037372B2, “Bioactive peptides derived from snakes” (Universiteit Leiden, priority 2018, dated 2024).
“Also recorded” adds a separate entry of the source.

Assays:
[1] = test system: multidrug resistant strain Acinetobacter baumannii RUH875; experiment: Bactericidal activity of peptides (in vitro killing assay); assay type: cell-based; settings: for LC99.9, bactericidal activity: MDR A. baumannii, PBS with 50% plasma
Description: (§1) Enterococcus faecium (LUH 15122), Staphylococcus aureus (LUH 14616), Klebsiella pneumoniae (LUH 15104), Acinetobacter baumannii (RUH 875), Pseudomonas aeruginosa (LUH 15103), Enterobacter cloacae (LUH 15114) and Escherichia coli (LUH 15117) were used. Prior to experimentation the bacteria were taken from a glycerol stock stored at −80° C. and cultured overnight on sheep blood agar plates at 37° C. On the day of experimentation the bacteria were cultured in tryptic soy broth (TSB; Oxoid) for 2.5 hours at 37° C. and 200 rpm to a mid-logarithmic phase. The bacterial suspension was washed in phosphate buffered saline (PBS; pH 7.4), centrifuged for 10 minutes at 3000 rpm, and resuspended in PBS to the desired concentration, as determined by measuring the absorbance at 600 nm.
(§2) As a control the bacteria were also incubated in PBS with either 50% plasma or 50% urine without peptide. The plate was incubated for 2 hours at 37° C. and 200 rpm. After incubation the number of viable bacteria was determined microbiologically by plating the samples and a 10-times dilution series in PBS on diagnostic sensitivity test agar plates (DST; Sigma). The DST plates were incubated overnight at 37° C. Results were expressed as lethal concentration 99.9, or LC99.9, which represents the lowest concentration of peptide that killed 99.9% of the bacteria within 2 hours of incubation.

[2] = test system: E. coli; experiment: Resistance development assay; assay type: cell-based, Escherichia coli; settings: 20 passages
Description: (§3) A bacterial culture was prepared and washed as described before. The bacterial culture was diluted to a concentration of 5×10^6 CFU/ml in modified RPMI 1640 comprising 20 mM HEPES, L-glutamine and without sodium bicarbonate (RPMImod; Sigma-Aldrich). In a polypropylene 96-well plate, a two-fold peptide dilution series was made in RPMImod with concentrations ranging from 0.94 μM to 240 μM. […] A negative control of RPMImod without peptide or an antibiotic was included for both dilution series. A contamination control was included containing only RPMImod. To all the wells, except the contamination control wells, 5 μl of the bacterial suspension were added. The plate was sealed and incubated overnight at 37° C. and 200 rpm. After incubation the MIC was determined as the well with the lowest peptide concentration and no bacterial growth. The well with half the MIC was diluted 2.5-fold with RPMImod and transferred to an Eppendorf tube. […] The results were expressed as the fold increase of the MIC compared to the MIC at the first passage.

[3] = test system: A. Baumannii; experiment: Resistance development assay; assay type: cell-based, Acinetobacter baumannii; settings: 20 passages
Description: as §3

[4] = test system: S. aureus LUH 14616; experiment: Resistance development assay; assay type: cell-based, Staphylococcus aureus; settings: 20 passages
Description: as §3

[5] = test system: A. Baumannii; experiment: Killing of A. baumannii in BM2 medium (control); assay type: cell-based, Acinetobacter baumannii; settings: 0.8 μM peptide
Description: As a control, the ability of these peptides to kill A. baumannii in BM2 medium was assessed.

[6] = test system: MRSA (S. aureus LUH 14616) on ex vivo human skin; experiment: Ex vivo skin model; parameters: species or system Staphylococcus aureus; settings: 10 μl peptide solution; 1 hour treatment
Description: The donor skin was transported to the LUMC in RPMI 1640 medium (Gibco) supplemented with penicillin/streptomycin (Gibco). Skin samples were washed in PBS and left overnight in RPMI 1640 medium without antibiotics. On the day of the experiment the skin was again washed in PBS, then spread out and punches with a diameter of 8 mm diameter were made with a biopsy punch (Stiefel). The skin samples were dried with a cotton swab. A liquid dam was made with LC Block-Out Resin (Ultradent) on the edge of the skin samples to prevent liquids from dripping off. The liquid dam was solidified by 4 seconds exposure of UV light (Super 1200 led; ECO). The skin samples were placed on grids in a 12-well plate (Costar) filled underneath with medium comprising Ham F12, DMEM and FCS (Gibco). An S. aureus LUH 14616 bacterial suspension was cultured and washed as described before. The skin punches were inoculated with 5 μl of the bacterial suspension (1×10^8 CFU/ml) for one hour at 37° C. and 5% CO2. […] The infected skin was treated for 1 hour at 37° C. and 5% CO2 with 10 μl of the peptide solutions, including a control with 10 μl of PBS alone. Polypropylene tubes were filed with glass beads (1.7 mm diameter) and 1 ml of PBS. The liquid dam was removed from the skin after treatment. […] Results were expressed as the number of viable bacteria (CFU/ml) after treatment.

[7] = test system: MDR E. cloacae (LUH 15114); experiment: Bactericidal activity of peptides (in vitro killing assay); assay type: cell-based, Enterobacter cloacae; settings: PBS with 50% plasma, 2 hours
Description: as §1, §2

[8] = test system: 24-hour biofilm of A. baumannii RUH 875; experiment: Biofilm breakdown assay; assay type: cell-based, Acinetobacter baumannii; settings: 2-hour treatment
Description: To a polypropylene 96-well flat-bottom plate (Greiner) 50 μl of a bacterial suspension at a concentration of 1×10^7 CFU/ml in BM2 medium (Overhage et al., 2008) were added. A control comprising BM2 medium alone was included. The plate was sealed off with a seal (Costar) and incubated in a humidified environment for 24 hours at 37° C. Thereafter the wells were washed 2 times with PBS. […] The plate was sealed off and incubated for 2 hours at 37° C. and 200 rpm. For analysis the plate was sonicated (Ultrasoonbad BRANSONIC® m1800H-E; Boom b.v.) for 5 minutes to detach the biofilm bacteria. The number of viable bacteria in the sonicates was determined microbiologically by plating the samples and a 10-times dilution series on DST agar plates and incubating these overnight at 37° C. Results were expressed as the LC99.9.

[9] = test system: drug-sensitive strain Escherichia coli LUH15108; experiment: Bactericidal activity of peptides (in vitro killing assay), alanine scan; assay type: cell-based; settings: lowest concentration killing 99.9% of an inoculum of about one million bacteria, 50% (v/v) human plasma, within 2 hours
Description: The amino acids of the SP27 peptide were substituted at various positions with Alanine. The substituted peptides were tested on A. baumannii and E. coli bacterial strains for having antimicrobial activity. Furthermore, the substituted peptides were tested for their hemolytic activity as an indicator for their toxicity.

[10] = test system: MDR K. pneumoniae (LUH 15104); experiment: Bactericidal activity of peptides (in vitro killing assay); assay type: cell-based, Klebsiella pneumoniae; settings: PBS with 50% plasma, 2 hours
Description: as §1, §2

[11] = test system: colistin-resistant E. coli (LUH 15117); experiment: as above; assay type: cell-based, Escherichia coli; settings: PBS with 50% plasma, 2 hours
Description: as §1, §2

[12] = test system: E. faecium (LUH 15122); experiment: as above; assay type: cell-based, Enterococcus faecium; settings: PBS with 50% plasma, 2 hours
Description: as §1, §2

[13] = test system: melanoma cells and other cancer cells; settings: Wang et al.; cited from earlier work
[14] = test system: MDR P. aeruginosa (LUH 15103); experiment: Bactericidal activity of peptides (in vitro killing assay); assay type: cell-based, Pseudomonas aeruginosa; settings: 2-hour treatment, 50% v/v human plasma, median (range)
Description: as §1, §2

[15] = test system: melanoma; settings: Wang et al.; cited from earlier work
[16] = test system: MDR S. aureus (LUH 14616), MRSA; experiment: Bactericidal activity of peptides (in vitro killing assay); assay type: cell-based, Staphylococcus aureus; settings: 50% v/v human plasma
Description: as §1, §2

[17] = test system: P. aeruginosa; settings: Cai et al., 2018; cited from earlier work
[18] = test system: MRSA; settings: Cai et al., 2018; cited from earlier work
[19] = test system: persisters originating from matured, antibiotic-exposed, MRSA biofilms; experiment: Activity against persisters; assay type: cell-based, Staphylococcus aureus
[20] = test system: lipopolysaccharide from E. coli J5 (LPS); experiment: LPS neutralization by peptides (whole blood, IL-12p40 ELISA); assay type: cell-based, human; settings: compared to the LPS control
Description: Heparinized blood collected from healthy human volunteers was diluted five times in RPMI 1640. Next, 195 μl of diluted blood were pipetted in to the wells of a 96-well cell culture plate. In another 96-well polypropylene V-bottom plate, 15 μl of peptide solution with final concentrations of 1 nM to 1000 nM were mixed with 15 μl of 500 ng/ml lipopolysaccharide from E. coli J5 (LPS; Sigma) for 30 minutes at 37° C. and 200 rpm. After incubation the mixtures were diluted five times with 120 μl of RPMI. From the diluted mixtures 5 μl were transferred to the wells of the plate containing the 195 μl of blood. The plate was incubated for 20 hours at 37° C. and 5% CO2. The plate was centrifuged for 5 minutes at 1200 rpm. The supernatants were stored as aliquots at −20° C. until analysis of the cytokine level by ELISA. The IL-12p40 sandwich ELISA from Invitrogen was used. ELISAs were performed according to manufacturer's instructions. Results were expressed as the concentration IL-12p40 in pg/ml.

Sequence | LC99.9, bactericidal activity ([1]; 2 hours) | resistance development: fold increase of the MIC [2] | resistance development: fold increase of the MIC [3] | resistance development: fold increase of the MIC [4] | reduction of viable bacteria [5] | peptide concentration killing 99.9% of the MRSA on ex vivo human skin [6] | LC99.9, bactericidal activity [7] | peptide concentration with complete elimination of the biofilms [8] | LC99.9, bactericidal activity [10] | LC99.9, bactericidal activity [11] | LC99.9, bactericidal activity [12] | other results
KRFKKFFRKVKKGVHRYFKKNKFYIAATIPYYG [SP27] | submicromolar concentrations | remained constant for all 20 passages | remained constant for all 20 passages | remained constant for all 20 passages; also recorded: limited resistance | 2 log | 204.8 µM | submicromolar concentrations | 51.2 µM | submicromolar concentrations | submicromolar concentrations | low micromolar concentrations | LC99.9 (μM) A. baumannii ([1]; Table 5, 50% (v/v) human plasma, 2 hours): 0.8 µM; LC99.9 (μM) A. baumannii ([1]; Table 6, 50% (v/v) human plasma, 2 hours): 0.8 µM; LC99.9 (μM) A. baumannii ([1]; lowest concentration killing 99.9% of an inoculum of about one million bacteria in 50% (v/v) human plasma within 2 hours, A. baumannii RUH875): 0.8 µM; LC99.9 (μM) A. baumannii ([1]; lowest concentration killing 99.9% of an inoculum of about one million bacteria, 50% (v/v) human plasma, within 2 hours, A. baumannii RUH875): 0.8 µM; LC99.9 (μM) A. baumannii ([1]; lowest concentration of the peptide that kills 99.9% of an inoculum of about one million bacteria in the presence of 50% (v/v) human plasma within 2 hours, Acinetobacter baumannii RUH875): 0.8 µM; LC99.9 (μM) E. coli [9]: 1.6 µM
KRFKKFFRKLKKSVKKRAKEFFKKPRVIGVSIPF [SP5] | – | – | – | – | – | – | – | – | – | – | – | effect on melanoma cells and other cancer cells in vitro [13]: inhibits; LC99.9 (μM) MDR P. aeruginosa in 50% plasma [14]: 0.4 µM; tumor load in melanoma-bearing mice [15]: reduces the tumor load; LC99.9 (μM) MRSA in 50% plasma ([16]; MDR S. aureus LUH 14616, 2-hour treatment, lowest concentration killing ≥99.9%, median (range)): 25.6 µM
KRFQNFFRELEKKFREFFRVYRITIGATIRF [SP16] | – | – | – | – | – | – | – | – | – | – | – | bactericidal effect against P. aeruginosa [17]: no bactericidal effect; bactericidal effect against MRSA [18]: no bactericidal effect
KRFKKFFKKLKNNVKKRVKKFFRKPRVIGVTIPF [SP4] | submicromolar concentrations | remained constant for all 20 passages | remained constant for all 20 passages | remained constant for all 20 passages; also recorded: limited resistance | 2 log | 102.4 µM | submicromolar concentrations | 51.2 µM | submicromolar concentrations | submicromolar concentrations | low micromolar concentrations | activity against persisters [19]: highly effective; LPS neutralization (IL-12p40 production) ([20]; 100 nM peptide): 74%; LPS neutralization (IL-12p40 production) ([20]; 1000 nM peptide): 96%; LC99.9 ([16]; Table 2, MDR S. aureus, concentration inducing 3 log reduction of viable bacteria): 3.2 µM
